Values of other authors, collected in patent publication US20100028296A1, “Use of cytokine-derived peptides in treatment of pain and neurodegenerative disease” (priority 2005, published 2010).
Where no end group is shown, it is not given here.

Experiments:
[1] = tested on: chronic constriction injury model of neuropathic pain; conditions: in vivo
[2] = tested on: immunomodulatory functions known for human IL-10; conditions: at generally different dosage levels
[3] = tested on: excitotoxic spinal cord injury; conditions: given 30 minutes following injury
[4] = native dimer, approximately 37 kDa
[5] = tested on: dynorphin-induced, IL-1β-mediated mechanical allodynia; conditions: intrathecal; administered 30 minutes or 6 hours after induction of allodynia

In the case of `O=C1CCC(N2C(=O)c3ccccc3C2=O)C(=O)N1` (stereo not drawn) [thalidomide], the mechanical allodynia [1] is given as “reduces” and the thermal hyperalgesia [1] is given as “reduces”.
For “AYMTMKIRN [IT, C-terminal nonapeptide from human IL-10 protein]”, the “functional activities compared with intact IL-10” value [2] is given as “shares some, but not all, of the functional activities of intact IL-10”.
For “IL-10: anti-inflammatory cytokine, dimer of approximately 37 kDa in its native state”, the pathological pain behaviors [3] is given as “decreased pathological pain behaviors”, the “crossing of the intact blood brain barrier” value [4] is given as “does not cross the intact blood brain barrier in appreciable amounts” and the “onset of mechanical allodynia” value [5] is given as “blocks the onset”.
